In brackets after ≈: the same amount, converted by molar mass.
Tests used:
physchem = type: physicochemical; settings: organic solvent or mixture
From the text: The amount of the Cl-C4 alkanol employed in the process of the invention should be sufficient to solubilize both the polymeric carrier and chlorthalidone. It will be apparent to those skilled in the art that best results will be achieved on a large scale using as high a concentration of chlorthalidone as is possible. Thus, optimally the process should be carried out using concentrations of chlorthalidone at the upper limits of solubility.

[1] = stability of the solution to ether formation; type: physicochemical; settings: chlorthalidone added to solution of polymeric carrier in C1-C4 alkanol
From the text: The polymeric carrier polyvinylpyrrolidone (PVP), used in the process of the invention must be pharmaceutically acceptable and be substantially soluble both in water and in the particular Cl-C4 alkanol selected for use in the process. Moreover, the polymeric carrier must be capable of forming a solid state dispersion of chlorthalidone after removal of the alkanol, and be capable of suppressing ether formation arising from reaction of the chlorthalidone with the Cl-C4 alkanol, as discussed above. The ability of a polymeric carrier to suppress ether formation can be determined routinely by dissolving chlorthalidone in a Cl-C4 alkanol, such as methanol, in a glass container in the presence and absence of the polymeric carrier and analyzing aliquots of the solution (taken at varying times up to 24 hours) for chlorthalidone content by HPLC techniques. An acceptable loss of chlorthalidone is up to about 2% after 24 hours at 40°C. The general use of polyvinylpyrrolidone (PVP), to prepare solid state dispersions of pharmaceutical active ingredients is described by the Chiou reference, supra. […] It is believed that PVP suppresses the formation of ethers primarily by complexing trace amounts of heavy metal ions thus making them unavailable for catalysis. […]

[2] = water; cited from earlier work

SMILES: NS(=O)(=O)c1cc(C2(O)NC(=O)c3ccccc32)ccc1Cl (stereo not drawn) [Chlorthalidone]
- solubility thermodynamic (physchem; ethanol): 15.5 mg/mL (≈ 45.8 mM)
- solubility thermodynamic (physchem; isopropanol): 3.2 mg/mL (≈ 9.45 mM)
- solubility thermodynamic (physchem; methanol): 76.1 mg/mL (≈ 225 mM)
- stable to ether formation ([1]; continued heating): at least one hour
- stable to ether formation ([1]; room temperature): at least four days
- aqueous solubility [2]: ~0.12 mg/mL (≈ 0.354 mM)

From patent EP0125420B1, “Water soluble dispersions of chlorthalidone and process for preparing them” (Boehringer Ingelheim Pharmaceuticals Inc., priority 1983, dated 1984)
